pIC50: −log10 of the molar value.
What was measured:
Type in all cases: biochemical
[1] = target: T1, recombinant alpha-glucosidase II (murine full-length glucosidase II, alpha and beta subunits, Glu 2) (Mus musculus, UniProt Q8BHN3); test: Alpha-glucosidase II assay (4-methylumbelliferyl-alpha-D-pyranoside substrate, fluorescence); conditions: Glucosidase 2; read-out: Glu2 IC50
T1 construct: made in house; host or cells: HEK-293T cells transduced with BacMam viruses (75% alpha, 25% beta); protein harvested from culture supernatant

[2] = target: rat sucrase (partially purified alpha-glucosidase from intestinal rat powder) (Rattus norvegicus, UniProt P23739); test: Intestinal alpha-glucosidase assay, sucrose substrate (Glucose GO Kit)
Summary of the method: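 Partially purified alpha-glucosidase from rat intestinal powder was preincubated 60 min at 37 °C with serial compound dilutions, then given maltose or sucrose and incubated 30 min at 37 °C.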

[3] = target: T2, recombinant alpha-glucosidase I (human full-length glucosidase I, Glu 1) (Homo sapiens, UniProt Q13724); test: Alpha-glucosidase I assay (Amplex Red glucose detection, synthetic trisaccharide substrate); conditions: Glucosidase 1; read-out: Glu 1 IC50
T2 construct: 6-His (C); made in house; host or cells: HEK-293T cells transduced with BacMam virus (virus raised in Sf9)
T2 sequence (Q13724 1-837): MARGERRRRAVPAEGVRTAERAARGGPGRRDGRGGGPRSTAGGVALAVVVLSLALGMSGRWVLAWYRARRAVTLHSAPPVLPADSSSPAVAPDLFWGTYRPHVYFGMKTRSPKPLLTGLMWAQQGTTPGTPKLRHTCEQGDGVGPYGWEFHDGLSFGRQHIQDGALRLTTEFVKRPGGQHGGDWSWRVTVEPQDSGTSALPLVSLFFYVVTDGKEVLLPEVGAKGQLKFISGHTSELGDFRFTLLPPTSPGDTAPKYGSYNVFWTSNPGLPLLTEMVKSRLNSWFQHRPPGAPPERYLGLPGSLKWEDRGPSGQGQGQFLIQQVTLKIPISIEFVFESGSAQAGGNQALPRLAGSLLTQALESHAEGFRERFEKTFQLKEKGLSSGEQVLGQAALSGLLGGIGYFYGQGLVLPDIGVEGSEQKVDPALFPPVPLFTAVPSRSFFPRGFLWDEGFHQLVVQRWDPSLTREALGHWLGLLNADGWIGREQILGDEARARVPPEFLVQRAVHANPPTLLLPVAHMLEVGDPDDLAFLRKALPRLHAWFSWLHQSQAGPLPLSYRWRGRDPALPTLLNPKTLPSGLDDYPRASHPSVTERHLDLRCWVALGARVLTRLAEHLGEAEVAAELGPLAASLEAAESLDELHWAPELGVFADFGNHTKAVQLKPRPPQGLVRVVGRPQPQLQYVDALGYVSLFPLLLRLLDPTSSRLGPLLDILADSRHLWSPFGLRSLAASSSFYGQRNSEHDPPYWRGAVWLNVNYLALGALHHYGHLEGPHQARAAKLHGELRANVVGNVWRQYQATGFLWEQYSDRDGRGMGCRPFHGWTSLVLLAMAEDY
Summary of the method: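 Compound dilution series incubated 60 min at 37° C with recombinant His-tagged human glucosidase I ([…]), after which trisaccharide substrate analog was added for 90 min at 37° C. Reaction quenched with 1.5M Tris pH 8; D-glucose detected by Amplex Red fluorescence, 560/590 nm. 4-PL curve fit of percent inhibition gave IC50.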

Sequence of rat sucrase (partially purified alpha-glucosidase from intestinal rat powder) (P23739 whole entry): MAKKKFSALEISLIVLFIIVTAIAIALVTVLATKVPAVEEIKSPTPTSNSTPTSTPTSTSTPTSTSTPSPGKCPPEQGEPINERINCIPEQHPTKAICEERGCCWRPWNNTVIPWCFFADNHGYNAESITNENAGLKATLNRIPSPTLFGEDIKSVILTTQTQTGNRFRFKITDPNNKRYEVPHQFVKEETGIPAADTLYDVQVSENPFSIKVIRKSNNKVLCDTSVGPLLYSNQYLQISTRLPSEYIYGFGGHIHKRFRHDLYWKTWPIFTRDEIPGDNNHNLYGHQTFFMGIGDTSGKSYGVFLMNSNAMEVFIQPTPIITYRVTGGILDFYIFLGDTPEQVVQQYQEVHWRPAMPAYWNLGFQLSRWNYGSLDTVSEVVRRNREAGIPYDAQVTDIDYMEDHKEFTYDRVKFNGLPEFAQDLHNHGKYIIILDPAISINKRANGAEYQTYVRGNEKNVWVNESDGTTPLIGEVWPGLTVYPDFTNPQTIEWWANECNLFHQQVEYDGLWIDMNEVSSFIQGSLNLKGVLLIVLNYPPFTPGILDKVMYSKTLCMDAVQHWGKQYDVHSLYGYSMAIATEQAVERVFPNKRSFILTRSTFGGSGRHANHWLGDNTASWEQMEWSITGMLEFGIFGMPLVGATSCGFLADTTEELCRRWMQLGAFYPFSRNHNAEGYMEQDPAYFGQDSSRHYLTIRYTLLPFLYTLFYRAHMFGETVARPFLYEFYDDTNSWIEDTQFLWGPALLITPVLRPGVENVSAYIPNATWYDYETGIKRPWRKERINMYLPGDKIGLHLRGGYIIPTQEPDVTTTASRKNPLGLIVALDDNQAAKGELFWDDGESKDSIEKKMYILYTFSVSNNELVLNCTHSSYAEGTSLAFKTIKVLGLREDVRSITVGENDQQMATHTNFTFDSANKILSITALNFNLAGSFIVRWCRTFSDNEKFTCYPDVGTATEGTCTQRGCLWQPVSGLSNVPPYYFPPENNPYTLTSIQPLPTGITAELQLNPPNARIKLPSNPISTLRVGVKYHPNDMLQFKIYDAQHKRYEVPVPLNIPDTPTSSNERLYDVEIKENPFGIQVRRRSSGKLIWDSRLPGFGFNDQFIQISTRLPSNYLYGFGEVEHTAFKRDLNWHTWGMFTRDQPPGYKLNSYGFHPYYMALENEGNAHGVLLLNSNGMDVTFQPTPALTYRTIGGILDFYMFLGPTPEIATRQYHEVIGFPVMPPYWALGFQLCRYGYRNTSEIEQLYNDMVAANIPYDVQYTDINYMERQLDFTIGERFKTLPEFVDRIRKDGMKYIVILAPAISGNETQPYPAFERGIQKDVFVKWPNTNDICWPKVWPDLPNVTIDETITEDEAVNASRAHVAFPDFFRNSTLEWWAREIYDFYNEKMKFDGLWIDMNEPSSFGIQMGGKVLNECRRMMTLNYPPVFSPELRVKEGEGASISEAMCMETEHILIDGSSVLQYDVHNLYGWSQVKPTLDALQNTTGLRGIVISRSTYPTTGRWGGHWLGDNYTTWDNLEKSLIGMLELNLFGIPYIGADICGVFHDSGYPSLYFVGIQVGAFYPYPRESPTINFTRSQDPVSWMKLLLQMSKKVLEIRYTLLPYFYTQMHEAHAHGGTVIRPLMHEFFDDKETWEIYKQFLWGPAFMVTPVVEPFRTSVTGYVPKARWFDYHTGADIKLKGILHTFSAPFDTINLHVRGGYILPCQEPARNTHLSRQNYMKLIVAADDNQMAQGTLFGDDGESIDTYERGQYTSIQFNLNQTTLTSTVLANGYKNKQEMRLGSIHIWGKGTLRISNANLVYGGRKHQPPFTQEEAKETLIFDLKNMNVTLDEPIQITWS
T1 sequence (O08795 15-521): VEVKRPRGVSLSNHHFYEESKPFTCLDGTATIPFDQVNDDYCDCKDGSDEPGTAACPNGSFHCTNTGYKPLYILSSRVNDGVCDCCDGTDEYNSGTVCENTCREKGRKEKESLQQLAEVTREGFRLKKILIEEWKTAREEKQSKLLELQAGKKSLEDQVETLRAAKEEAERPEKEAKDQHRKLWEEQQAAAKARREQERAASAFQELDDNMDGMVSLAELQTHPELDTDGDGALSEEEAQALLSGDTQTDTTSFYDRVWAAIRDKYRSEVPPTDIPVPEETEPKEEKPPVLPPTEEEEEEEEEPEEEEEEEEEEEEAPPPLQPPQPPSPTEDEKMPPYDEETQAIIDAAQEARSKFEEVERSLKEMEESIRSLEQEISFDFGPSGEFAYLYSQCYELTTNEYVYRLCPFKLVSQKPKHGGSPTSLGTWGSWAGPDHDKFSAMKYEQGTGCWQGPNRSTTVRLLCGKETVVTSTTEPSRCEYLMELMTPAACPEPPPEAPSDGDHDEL
T1 sequence (Q8BHN3 33-944): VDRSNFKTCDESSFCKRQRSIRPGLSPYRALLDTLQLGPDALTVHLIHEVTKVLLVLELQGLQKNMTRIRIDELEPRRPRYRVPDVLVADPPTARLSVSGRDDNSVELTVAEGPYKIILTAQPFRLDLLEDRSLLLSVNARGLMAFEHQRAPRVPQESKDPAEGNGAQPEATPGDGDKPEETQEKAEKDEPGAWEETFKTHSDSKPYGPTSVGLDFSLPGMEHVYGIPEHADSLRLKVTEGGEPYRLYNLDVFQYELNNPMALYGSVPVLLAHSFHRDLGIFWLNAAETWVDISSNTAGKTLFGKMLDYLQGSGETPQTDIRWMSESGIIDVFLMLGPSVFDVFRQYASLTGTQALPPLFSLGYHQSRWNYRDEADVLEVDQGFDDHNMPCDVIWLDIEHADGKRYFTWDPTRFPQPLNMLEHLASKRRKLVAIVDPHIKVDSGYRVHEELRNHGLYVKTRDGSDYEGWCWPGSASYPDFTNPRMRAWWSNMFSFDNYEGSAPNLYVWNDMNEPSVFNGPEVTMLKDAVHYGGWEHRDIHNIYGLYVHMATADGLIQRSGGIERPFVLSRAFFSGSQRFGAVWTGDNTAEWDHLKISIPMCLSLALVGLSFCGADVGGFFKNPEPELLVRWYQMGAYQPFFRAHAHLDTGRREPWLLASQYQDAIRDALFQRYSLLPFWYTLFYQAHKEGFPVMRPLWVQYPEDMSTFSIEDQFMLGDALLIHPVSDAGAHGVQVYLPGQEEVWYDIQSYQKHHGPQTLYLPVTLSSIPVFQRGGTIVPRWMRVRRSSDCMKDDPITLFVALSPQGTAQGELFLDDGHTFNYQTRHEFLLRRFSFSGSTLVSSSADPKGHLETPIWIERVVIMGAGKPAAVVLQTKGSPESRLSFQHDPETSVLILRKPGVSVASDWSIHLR

Row | Compound | pIC50 [1] | pIC50 [2] | pIC50 [3]
1 | O=[N+]([O-])c1cc(N2CCOCC2)ccc1NCc1ccc(CN2C[C@@H](O)[C@H](O)[C@@H](O)[C@@H]2CO)cc1 (stereo in doubt) [Compound 1069, (2S,3S,4S,5R)-2-(hydroxymethyl)-1-{[4-({[4-(morpholin-4-yl)-2-nitrophenyl]amino}methyl)phenyl]methyl}piperidine-3,4,5-triol] | 8.40 | 8.10 | 7.66
2 | CN(Cc1ccc(CN2C[C@H](O)[C@@H](O)[C@H](O)[C@H]2CO)cc1)c1cc(-c2cccnn2)cc(C2CC2)c1 [Compound 1001, (2R,3R,4R,5S)-1-{[4-({[3-cyclopropyl-5-(pyridazin-3-yl)phenyl](methyl)amino}methyl)phenyl]methyl}-2-(hydroxymethyl)piperidine-3,4,5-triol] | 6.36 | 7.82 | 7.89
3 | Cc1cc(CN2CCOCC2)cc(NCCCCCCN2C[C@H](O)[C@@H](O)[C@H](O)[C@H]2CO)c1 [Compound 1003, (2R,3R,4R,5S)-2-(hydroxymethyl)-1-[6-({3-methyl-5-[(morpholin-4-yl)methyl]phenyl}amino)hexyl]piperidine-3,4,5-triol] | 8.70 | 6.42 | 6.44
4 | Cc1cc(CN2CCOCC2)cc(NCc2ccc(CN3C[C@H](O)[C@@H](O)[C@H](O)[C@H]3CO)cc2)c1 [Compound 1005, (2R,3R,4R,5S)-2-(hydroxymethyl)-1-({4-[({3-methyl-5-[(morpholin-4-yl)methyl]phenyl}amino)methyl]phenyl}methyl)piperidine-3,4,5-triol] | 5.80 | 6.18 | 6.39
5 | OC[C@@H]1[C@@H](O)[C@H](O)[C@@H](O)CN1CCCCCCNc1cc(C2CC2)cc(N2CCOCC2)c1 [Compound 1006, (2R,3R,4R,5S)-1-(6-{[3-cyclopropyl-5-(morpholin-4-yl)phenyl]amino}hexyl)-2-(hydroxymethyl)piperidine-3,4,5-triol] | 9.00 | 6.94 | 6.66
6 | N#Cc1cc(NCc2cccc(CN3C[C@H](O)[C@@H](O)[C@H](O)[C@H]3CO)c2)cc(-c2ccc[nH]2)c1 [Compound 1045, 3-(1H-pyrrol-2-yl)-5-{[(3-{[(2R,3R,4R,5S)-3,4,5-trihydroxy-2-(hydroxymethyl)piperidin-1-yl]methyl}phenyl)methyl]amino}benzonitrile] | 5.11 | > 9.00 | > 9.00
7 | N#Cc1cc(NCc2cccc(CN3C[C@H](O)[C@@H](O)[C@H](O)[C@H]3CO)c2)cc(-c2cccnn2)c1 [Compound 1046, 3-(pyridazin-3-yl)-5-{[(3-{[(2R,3R,4R,5S)-3,4,5-trihydroxy-2-(hydroxymethyl)piperidin-1-yl]methyl}phenyl)methyl]amino}benzonitrile] | 4.75 | 7.28 | 7.77
8 | N#Cc1cc(NCc2cccc(CN3C[C@H](O)[C@@H](O)[C@H](O)[C@H]3CO)c2)cc(-c2ncccn2)c1 [Compound 1047, 3-(pyrimidin-2-yl)-5-{[(3-{[(2R,3R,4R,5S)-3,4,5-trihydroxy-2-(hydroxymethyl)piperidin-1-yl]methyl}phenyl)methyl]amino}benzonitrile] | 4.89 | 7.96 | 7.89
9 | Cc1cc(NCc2ccc(CN3C[C@H](O)[C@@H](O)[C@H](O)[C@H]3CO)cc2)cc(N2CCOCC2)c1 [Compound 1048, (2R,3R,4R,5S)-2-(hydroxymethyl)-1-{[4-({[3-methyl-5-(morpholin-4-yl)phenyl]amino}methyl)phenyl]methyl}piperidine-3,4,5-triol] | 6.26 | 7.23 | 6.84
10 | Cc1cc(NCc2ccc(CN3C[C@H](O)[C@@H](O)[C@H](O)[C@H]3CO)cc2)cc(C2=COCCO2)c1 [Compound 1050, (2R,3R,4R,5S)-1-{[4-({[3-(5,6-dihydro-1,4-dioxin-2-yl)-5-methylphenyl]amino}methyl)phenyl]methyl}-2-(hydroxymethyl)piperidine-3,4,5-triol] | 8.52 | 8.40 | 7.49
11 | Cc1cc(NCc2ccc(CN3C[C@H](O)[C@@H](O)[C@H](O)[C@H]3CO)cc2)cc(-c2ccc[nH]2)c1 [Compound 1051, (2R,3R,4R,5S)-2-(hydroxymethyl)-1-{[4-({[3-methyl-5-(1H-pyrrol-2-yl)phenyl]amino}methyl)phenyl]methyl}piperidine-3,4,5-triol] | 6.67 | > 9.00 | 7.32
12 | Cc1cc(NCc2ccc(CN3C[C@H](O)[C@@H](O)[C@H](O)[C@H]3CO)cc2)cc(-c2ncccn2)c1 [Compound 1053, (2R,3R,4R,5S)-2-(hydroxymethyl)-1-{[4-({[3-methyl-5-(pyrimidin-2-yl)phenyl]amino}methyl)phenyl]methyl}piperidine-3,4,5-triol] | 6.86 | 7.64 | 6.98
13 | CS(=O)(=O)c1cc(NCc2ccc(CN3C[C@H](O)[C@@H](O)[C@H](O)[C@H]3CO)cc2)cc(N2CCOCC2)c1 [Compound 1054, (2R,3R,4R,5S)-2-(hydroxymethyl)-1-{[4-({[3-methanesulfonyl-5-(morpholin-4-yl)phenyl]amino}methyl)phenyl]methyl}piperidine-3,4,5-triol] | 5.66 | 6.80 | 6.99
14 | CS(=O)(=O)c1cc(NCc2ccc(CN3C[C@H](O)[C@@H](O)[C@H](O)[C@H]3CO)cc2)cc(-c2ncccn2)c1 [Compound 1059, (2R,3R,4R,5S)-2-(hydroxymethyl)-1-{[4-({[3-methanesulfonyl-5-(pyrimidin-2-yl)phenyl]amino}methyl)phenyl]methyl}piperidine-3,4,5-triol] | 7.24 | 7.35 | 7.48
15 | N#Cc1cc(NCc2ccc(CN3C[C@H](O)[C@@H](O)[C@H](O)[C@H]3CO)cc2)cc(N2CCOCC2)c1 [Compound 1060, 3-(morpholin-4-yl)-5-{[(4-{[(2R,3R,4R,5S)-3,4,5-trihydroxy-2-(hydroxymethyl)piperidin-1-yl]methyl}phenyl)methyl]amino}-benzonitrile] | 6.58 | 7.28 | 7.39
16 | N#Cc1cc(NCc2ccc(CN3C[C@H](O)[C@@H](O)[C@H](O)[C@H]3CO)cc2)cc(C2=COCCO2)c1 [Compound 1062, 3-(5,6-dihydro-1,4-dioxin-2-yl)-5-{[(4-{[(2R,3R,4R,5S)-3,4,5-trihydroxy-2-(hydroxymethyl)piperidin-1-yl]methyl}phenyl)-methyl]amino}benzonitrile] | > 9.00 | > 9.00 | 9.00
17 | N#Cc1cc(NCc2ccc(CN3C[C@H](O)[C@@H](O)[C@H](O)[C@H]3CO)cc2)cc(-c2ccc[nH]2)c1 [Compound 1063, 3-(1H-pyrrol-2-yl)-5-{[(4-{[(2R,3R,4R,5S)-3,4,5-trihydroxy-2-(hydroxymethyl)piperidin-1-yl]methyl}phenyl)methyl]amino}-benzonitrile] | 7.15 | > 9.00 | 9.00
18 | N#Cc1cc(NCc2ccc(CN3C[C@H](O)[C@@H](O)[C@H](O)[C@H]3CO)cc2)cc(-c2cccnn2)c1 [Compound 1064, 3-(pyridazin-3-yl)-5-{[(4-{[(2R,3R,4R,5S)-3,4,5-trihydroxy-2-(hydroxymethyl)piperidin-1-yl]methyl}phenyl)methyl]amino}-benzonitrile] | 8.70 | 7.59 | 7.92
19 | N#Cc1cc(NCc2ccc(CN3C[C@H](O)[C@@H](O)[C@H](O)[C@H]3CO)cc2)cc(-c2ncccn2)c1 [Compound 1065, 3-(pyrimidin-2-yl)-5-{[(4-{[(2R,3R,4R,5S)-3,4,5-trihydroxy-2-(hydroxymethyl)piperidin-1-yl]methyl}phenyl)methyl]amino}-benzonitrile] | 8.22 | 7.43 | 8.05
20 | OC[C@@H]1[C@@H](O)[C@H](O)[C@@H](O)CN1Cc1cccc(CNc2ccc(C3=COCCO3)cc2)c1 [Compound 1066, (2R,3R,4R,5S)-1-{[3-({[4-(5,6-dihydro-1,4-dioxin-2-yl)phenyl]amino}methyl)phenyl]methyl}-2-(hydroxymethyl)piperidine-3,4,5-triol] | 5.47 | 7.59 | 7.16
